The results in this text go back to patent US11084829B2, “Ubiquitin-specific-processing protease 7 (USP7) modulators and uses thereof” (RAPT THERAPEUTICS, INC., priority 2018, dated 2021).

This test concerns the target USP7 (Homo sapiens, UniProt Q93009). Put plainly: USP7 inhibitory potency (IC50). The class given is biochemical. The procedure:
Activity for compounds described herein is provided in Table 2, wherein potency levels are provided as follows: (Potency: USP7 IC50: A<0.01 μM; B=0.01-0.1 μM; C=>0.1 μM.

USP7, sequence (Q93009 whole entry): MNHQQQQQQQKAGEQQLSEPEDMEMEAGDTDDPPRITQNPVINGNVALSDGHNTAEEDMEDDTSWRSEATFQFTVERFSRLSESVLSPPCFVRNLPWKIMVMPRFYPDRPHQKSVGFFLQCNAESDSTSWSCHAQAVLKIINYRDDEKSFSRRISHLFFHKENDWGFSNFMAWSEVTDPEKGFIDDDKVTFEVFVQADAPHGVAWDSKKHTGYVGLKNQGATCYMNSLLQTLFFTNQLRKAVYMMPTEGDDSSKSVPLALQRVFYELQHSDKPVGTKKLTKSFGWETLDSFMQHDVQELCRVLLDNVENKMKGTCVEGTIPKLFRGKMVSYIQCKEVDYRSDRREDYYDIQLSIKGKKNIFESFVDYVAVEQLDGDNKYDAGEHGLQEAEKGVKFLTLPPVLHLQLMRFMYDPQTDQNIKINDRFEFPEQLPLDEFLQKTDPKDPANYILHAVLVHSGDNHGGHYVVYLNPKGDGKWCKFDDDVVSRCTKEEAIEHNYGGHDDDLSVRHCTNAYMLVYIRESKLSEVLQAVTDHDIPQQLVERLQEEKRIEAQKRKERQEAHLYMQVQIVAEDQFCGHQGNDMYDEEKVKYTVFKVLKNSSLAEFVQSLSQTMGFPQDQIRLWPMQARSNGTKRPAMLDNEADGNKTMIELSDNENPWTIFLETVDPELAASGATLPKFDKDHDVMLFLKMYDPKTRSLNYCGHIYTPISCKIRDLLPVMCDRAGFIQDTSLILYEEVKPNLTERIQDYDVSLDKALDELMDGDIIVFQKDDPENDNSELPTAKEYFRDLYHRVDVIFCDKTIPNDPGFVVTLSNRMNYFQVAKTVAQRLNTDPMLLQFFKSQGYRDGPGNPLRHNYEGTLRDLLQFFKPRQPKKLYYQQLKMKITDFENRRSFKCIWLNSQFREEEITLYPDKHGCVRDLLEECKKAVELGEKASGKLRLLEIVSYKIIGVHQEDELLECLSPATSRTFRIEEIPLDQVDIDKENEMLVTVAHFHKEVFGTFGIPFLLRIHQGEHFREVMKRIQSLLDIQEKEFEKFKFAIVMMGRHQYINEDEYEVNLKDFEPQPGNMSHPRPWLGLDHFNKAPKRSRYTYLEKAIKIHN

A word on the IC50: it is the concentration that gives 50% inhibition. With `Cc1cc(Cl)cc(-c2ncnc3cc(CN4C(=O)CCN(CCO)C4=O)sc23)c1C[C@@H]1CNCC(C)(C)O1` [Example 271, (R)-3-((4-(5-chloro-2-((6,6-dimethylmorpholin-2-yl)methyl)-3-methylphenyl)thieno[3,2-d]pyrimidin-6-yl)methyl)-1-(2-hydroxyethyl)dihydropyrimidine-2,4(1H,3H)-dione], the IC50 was under 10 nM.
Next, `Cc1cc(Cl)cc(-c2ccnc3cc(CN4C(=O)C5CC5C4=O)sc23)c1CC1COCCN1` (centres unmarked) [Example 115, 3-((7-(5-chloro-3-methyl-2-(morpholin-3-ylmethyl)phenyl)thieno[3,2-b]pyridin-2-yl)methyl)-3-azabicyclo[3.1.0]hexane-2,4-dione]: over 100 nM.
Next, `Cc1cc(Cl)cc(-c2ncnc3cc(Cn4c(=O)ccn(C)c4=O)sc23)c1CC1CNCCO1` (centres unmarked) [Example 162, 3-((4-(5-chloro-3-methyl-2-(morpholin-2-ylmethyl)phenyl)thieno[3,2-d]pyrimidin-6-yl)methyl)-1-methylpyrimidine-2,4(1H,3H)-dione]: under 10 nM; `Cc1cc(Cl)cc(-c2ccnc3cc(CN4C(=O)CCC4=O)sc23)c1CN1CCNC(C)(C)C1` [Example 10, 1-((7-(5-chloro-2-((3,3-dimethylpiperazin-1-yl)methyl)-3-methylphenyl)thieno[3,2-b]pyridin-2-yl)methyl)pyrrolidine-2,5-dione]: under 10 nM; `Cc1cc(Cl)cc(-c2ncnc3cc(CN4C(=O)CN(CC(F)(F)F)C4=O)sc23)c1CC1CNCCO1` (centres unmarked) [Example 176, 3-((4-(5-chloro-3-methyl-2-(morpholin-2-ylmethyl)phenyl)thieno[3,2-d]pyrimidin-6-yl)methyl)-1-(2,2,2-trifluoroethyl)imidazolidine-2,4-dione]: under 10 nM.
To `Cc1cc(Cl)cc(-c2ncnc3cc(CN4C(=O)CSC4=O)sc23)c1CN1C[C@@H](C)NC[C@@H]1C` [Example 79, 3-((4-(5-chloro-2-(((2S,5R)-2,5-dimethylpiperazin-1-yl)methyl)-3-methylphenyl)thieno[3,2-d]pyrimidin-6-yl)methyl)thiazolidine-2,4-dione] belongs under 10 nM; to `Cc1cc(Cl)cc(-c2ncnc3cc(CN4C(=O)CN(C)C4=O)sc23)c1CN1C[C@@H](C)NC[C@@H]1C` [Example 80, 3-((4-(5-chloro-2-(((2S,5R)-2,5-dimethylpiperazin-1-yl)methyl)-3-methylphenyl)thieno[3,2-d]pyrimidin-6-yl)methyl)-1-methylimidazolidine-2,4-dione], under 10 nM.
Regarding `Cc1cc(Cl)cc(-c2ccnc3c(F)c(CN4C(=O)CC[C@@H]4CF)sc23)c1C[C@@H]1CNCCO1` [Example 149, (R)-1-((7-(5-chloro-3-methyl-2-(((R)-morpholin-2-yl)methyl)phenyl)-3-fluorothieno[3,2-b]pyridin-2-yl)methyl)-5-(fluoromethyl)pyrrolidin-2-one], the IC50 was in the range of 10 to 100 nM.
As for `C[C@@H]1CN(Cc2c(Cl)cc(Cl)cc2-c2ccnc3cc(CN4C(=O)C5CC5C4=O)sc23)[C@@H](C)CN1` (stereo partly drawn) [Example 43, 3-((7-(3,5-dichloro-2-(((2S,5R)-2,5-dimethylpiperazin-1-yl)methyl)phenyl)thieno[3,2-b]pyridin-2-yl)methyl)-3-azabicyclo[3.1.0]hexane-2,4-dione], the IC50 was under 10 nM.
`Cc1cc(Cl)cc(-c2ncnc3cc(CN4C(=O)CCN(C)C4=O)sc23)c1C[C@@H]1CNCC(C)(C)O1` [Example 217, (R)-3-((4-(5-chloro-2-((6,6-dimethylmorpholin-2-yl)methyl)-3-methylphenyl)thieno[3,2-d]pyrimidin-6-yl)methyl)-1-methyldihydropyrimidine-2,4(1H,3H)-dione] registered an IC50 of under 10 nM.
Next, `Cc1cc(Cl)cc(-c2ccnc3cc(Cn4c(=O)ccn(C)c4=O)sc23)c1CC1CNCCO1` (centres unmarked) [Example 108, 3-((7-(5-chloro-3-methyl-2-(morpholin-2-ylmethyl)phenyl)thieno[3,2-b]pyridin-2-yl)methyl)-1-methylpyrimidine-2,4(1H,3H)-dione]: under 10 nM; `CN1CCC(=O)N(Cc2cc3ncnc(-c4cc(Cl)cc(Cl)c4CC4CNCCO4)c3s2)C1=O` (centres unmarked) [Example 205, 3-((4-(3,5-dichloro-2-(morpholin-2-ylmethyl)phenyl)thieno[3,2-d]pyrimidin-6-yl)methyl)-1-methyldihydropyrimidine-2,4(1H,3H)-dione]: under 10 nM; `Cc1cc(Cl)cc(-c2ccnc3cc(CN4C(=O)C5C(C4=O)C5(C)C)sc23)c1CC1CNCC(C)(C)O1` (centres unmarked) [Example 97, 3-((7-(5-chloro-2-((6,6-dimethylmorpholin-2-yl)methyl)-3-methylphenyl)thieno[3,2-b]pyridin-2-yl)methyl)-6,6-dimethyl-3-azabicyclo[3.1.0]hexane-2,4-dione]: under 10 nM.
Next, `Cc1cc(Cl)cc(-c2ccnc3cc(CN4C(=O)CCC4=O)sc23)c1CC1CNCC2(CCC2)O1` (centres unmarked) [Example 143, 1-((7-(2-((5-oxa-8-azaspiro[3.5]nonan-6-yl)methyl)-5-chloro-3-methylphenyl)thieno[3,2-b]pyridin-2-yl)methyl)pyrrolidine-2,5-dione]: under 10 nM; `Cc1cc(Cl)cc(-c2ncnc3cc(CN4C(=O)CC[C@@H]4CO)sc23)c1CC1CNCC(C)(C)O1` (stereo partly drawn) [Example 206, (5R)-1-((4-(5-chloro-2-((6,6-dimethylmorpholin-2-yl)methyl)-3-methylphenyl)thieno[3,2-d]pyrimidin-6-yl)methyl)-5-(hydroxymethyl)pyrrolidin-2-one]: 10 to 100 nM.
Next, “3-((4-(2-((5-oxa-8-azaspiro[3.5]nonan-6-yl)methyl)-5-chloro-3-methylphenyl)thieno[3,2-d]pyrimidin-6-yl)methyl)-3-azabicyclo[3.1.0]hexane-2,4-dione [Example 221]”: under 10 nM; `COC[C@H]1CCC(=O)N1Cc1cc2ncnc(-c3cc(Cl)cc(C)c3CC3CNCC(C)(C)O3)c2s1` (stereo partly drawn) [Example 229, (5R)-1-((4-(5-chloro-2-((6,6-dimethylmorpholin-2-yl)methyl)-3-methylphenyl)thieno[3,2-d]pyrimidin-6-yl)methyl)-5-(methoxymethyl)pyrrolidin-2-one]: 10 to 100 nM; `Cc1cc(Cl)cc(-c2ccnc3cc(Cn4c(=O)ccn(C)c4=O)sc23)c1CC1CNCC2(CCC2)O1` (centres unmarked) [Example 145, 3-((7-(2-((5-oxa-8-azaspiro[3.5]nonan-6-yl)methyl)-5-chloro-3-methylphenyl)thieno[3,2-b]pyridin-2-yl)methyl)-1-methylpyrimidine-2,4(1H,3H)-dione]: under 10 nM.
The molecule `Cc1cc(Cl)cc(-c2ccnc3cc(CN4C(=O)CN(C)C4=O)sc23)c1CC1CNCC(C)(C)O1` (centres unmarked) [Example 121, 3-((7-(5-chloro-2-((6,6-dimethylmorpholin-2-yl)methyl)-3-methylphenyl)thieno[3,2-b]pyridin-2-yl)methyl)-1-methylimidazolidine-2,4-dione] gave an IC50 of under 10 nM.
To “3-((7-(5-chloro-2-(((2S,6S)-2,6-dimethyl piperazin-1-yl)methyl)-3-methylphenyl)thieno[3,2-b]pyridin-2-yl)methyl)-1-methylpyrimidine-2,4(1H,3H)-dione [Example 78]” belongs under 10 nM.
